In ChEMBL document CHEMBL1909046, “DrugMatrix in vitro pharmacology data”:

Legend:
[1] = DRUGMATRIX: Tumor Necrosis Factor (TNF), Non-Selective radioligand binding (ligand: [125I] TNF-alpha); type: cell membranes, Membrane; conditions: u-937; Not Active = under 50% inhibition at 10 µM
[2] = biological target: T1, Cholecystokinin receptor type A (Homo sapiens, UniProt P32238); type: cell membranes, Membrane; conditions: 1321-n1; also: in other assays of this panel Not Active means under 50% inhibition at 10 µM
T1 sequence (P32238 whole entry): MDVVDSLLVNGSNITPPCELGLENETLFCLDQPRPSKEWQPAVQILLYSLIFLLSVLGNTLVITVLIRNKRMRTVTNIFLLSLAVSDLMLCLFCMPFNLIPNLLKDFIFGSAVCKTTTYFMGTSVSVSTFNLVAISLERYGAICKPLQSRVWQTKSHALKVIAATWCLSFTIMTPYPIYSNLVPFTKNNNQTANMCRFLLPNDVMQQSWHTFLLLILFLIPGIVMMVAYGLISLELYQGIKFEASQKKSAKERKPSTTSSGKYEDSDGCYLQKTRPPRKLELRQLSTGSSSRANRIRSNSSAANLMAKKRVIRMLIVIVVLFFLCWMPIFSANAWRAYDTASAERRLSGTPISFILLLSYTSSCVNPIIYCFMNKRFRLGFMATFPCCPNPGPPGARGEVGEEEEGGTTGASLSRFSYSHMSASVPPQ

[3] = biological target: Tyrosine-protein kinase Lck (Homo sapiens, UniProt P06239); assay: DRUGMATRIX: Protein Tyrosine Kinase, LCK enzyme inhibition (substrate: Poly(Glu:Tyr)); type: cell-based, Insect cells; conditions: insect cells; Not Active = under 50% inhibition at 10 µM
[4] = biological target: T2, C-X-C chemokine receptor type 2 (Homo sapiens, UniProt P25025); type: cell membranes, Membrane; conditions: cho-k1; also: in other assays of this panel Not Active means under 50% inhibition at 10 µM
T2 sequence (P25025 whole entry): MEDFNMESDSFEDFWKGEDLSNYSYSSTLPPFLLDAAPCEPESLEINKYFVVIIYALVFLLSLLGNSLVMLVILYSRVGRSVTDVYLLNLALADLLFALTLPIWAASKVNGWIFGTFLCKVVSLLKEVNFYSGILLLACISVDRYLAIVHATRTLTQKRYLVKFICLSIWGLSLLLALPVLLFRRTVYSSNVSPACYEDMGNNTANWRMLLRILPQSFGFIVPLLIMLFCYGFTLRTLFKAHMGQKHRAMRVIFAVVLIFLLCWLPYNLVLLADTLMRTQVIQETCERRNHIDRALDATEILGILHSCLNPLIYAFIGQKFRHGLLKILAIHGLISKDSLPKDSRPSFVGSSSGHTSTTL

[5] = biological target: Beta-1 adrenergic receptor (Homo sapiens, UniProt P08588); assay: DRUGMATRIX: Adrenergic beta1 radioligand binding (ligand: [125I] Cyanopindolol); type: cell membranes, CHO-K1, Membrane; conditions: cho-k1; Not Active = under 50% inhibition at 10 µM
[6] = biological target: T3, Muscarinic acetylcholine receptor M2 (Homo sapiens, UniProt P08172); type: cell membranes, CHO-K1, Membrane; conditions: cho-k1; also: in other assays of this panel Not Active means under 50% inhibition at 10 µM
T3 sequence (P08172 whole entry): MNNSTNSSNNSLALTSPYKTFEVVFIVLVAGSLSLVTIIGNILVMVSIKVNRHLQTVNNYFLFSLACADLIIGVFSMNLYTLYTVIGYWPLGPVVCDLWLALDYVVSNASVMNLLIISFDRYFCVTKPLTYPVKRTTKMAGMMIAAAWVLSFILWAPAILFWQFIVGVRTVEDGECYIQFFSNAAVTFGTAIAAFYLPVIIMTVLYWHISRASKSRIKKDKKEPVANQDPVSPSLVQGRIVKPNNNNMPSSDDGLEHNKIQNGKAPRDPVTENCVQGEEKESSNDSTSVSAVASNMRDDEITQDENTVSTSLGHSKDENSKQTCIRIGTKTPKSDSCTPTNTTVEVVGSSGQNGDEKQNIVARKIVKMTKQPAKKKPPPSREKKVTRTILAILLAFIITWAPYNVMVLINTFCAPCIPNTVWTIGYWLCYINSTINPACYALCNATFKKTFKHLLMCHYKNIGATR

[7] = DRUGMATRIX: Phosphodiesterase PDE4 enzyme inhibition (substrate: [3H]cAMP + cAMP); conditions: u-937; Not Active = under 50% inhibition at 10 µM
D(3) dopamine receptor = D(3) dopamine receptor (Homo sapiens, UniProt P35462); assay: DRUGMATRIX: Dopamine D3 radioligand binding (ligand: [3H] Spiperone); type: cell membranes, CHO, Membrane; conditions: cho
[8] = biological target: T4, Nitric oxide synthase, inducible (Mus musculus, UniProt P29477); parameters: species or system Escherichia coli;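 also: inhibition of iNOS enzyme activity measured with L-arginine as substrate; in other assays of this panel Not Active means under 50% inhibition at 10 µM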
T4 sequence (P29477 whole entry): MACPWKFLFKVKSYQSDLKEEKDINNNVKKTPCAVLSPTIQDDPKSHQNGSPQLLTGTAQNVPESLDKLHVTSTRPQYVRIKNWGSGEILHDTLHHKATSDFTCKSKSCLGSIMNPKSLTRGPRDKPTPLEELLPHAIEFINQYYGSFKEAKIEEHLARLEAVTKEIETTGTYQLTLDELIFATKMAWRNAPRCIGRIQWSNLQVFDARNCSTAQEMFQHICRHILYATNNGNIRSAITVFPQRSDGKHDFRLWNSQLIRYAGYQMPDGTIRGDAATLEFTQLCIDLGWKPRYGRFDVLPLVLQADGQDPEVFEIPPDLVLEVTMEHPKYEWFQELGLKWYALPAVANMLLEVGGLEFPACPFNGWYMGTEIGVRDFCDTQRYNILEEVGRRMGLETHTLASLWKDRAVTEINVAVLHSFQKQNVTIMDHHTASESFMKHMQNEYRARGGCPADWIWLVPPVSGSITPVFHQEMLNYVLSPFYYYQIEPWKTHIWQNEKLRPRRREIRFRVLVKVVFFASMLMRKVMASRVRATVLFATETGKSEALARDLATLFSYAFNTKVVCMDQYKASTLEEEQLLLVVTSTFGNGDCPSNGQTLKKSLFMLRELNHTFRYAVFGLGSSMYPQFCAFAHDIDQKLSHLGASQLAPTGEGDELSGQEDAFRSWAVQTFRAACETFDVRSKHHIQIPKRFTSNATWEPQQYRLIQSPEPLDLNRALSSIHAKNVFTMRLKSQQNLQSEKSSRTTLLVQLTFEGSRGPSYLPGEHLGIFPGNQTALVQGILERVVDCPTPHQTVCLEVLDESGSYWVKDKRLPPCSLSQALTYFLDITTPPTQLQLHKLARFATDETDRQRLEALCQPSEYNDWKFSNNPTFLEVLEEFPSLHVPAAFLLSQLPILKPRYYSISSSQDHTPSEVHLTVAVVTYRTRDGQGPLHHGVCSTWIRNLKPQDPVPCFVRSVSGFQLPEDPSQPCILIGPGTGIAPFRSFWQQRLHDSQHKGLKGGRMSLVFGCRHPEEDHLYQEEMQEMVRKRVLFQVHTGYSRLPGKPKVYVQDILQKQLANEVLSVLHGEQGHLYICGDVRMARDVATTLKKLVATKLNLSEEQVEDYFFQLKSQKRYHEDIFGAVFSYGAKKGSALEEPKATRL

[9] = biological target: Tyrosine-protein kinase Fyn (Homo sapiens, UniProt P06241); assay: biochemical; type: cell-based, Insect cells; conditions: insect cells
Tyrosine-protein kinase Fyn, sequence (P06241 whole entry): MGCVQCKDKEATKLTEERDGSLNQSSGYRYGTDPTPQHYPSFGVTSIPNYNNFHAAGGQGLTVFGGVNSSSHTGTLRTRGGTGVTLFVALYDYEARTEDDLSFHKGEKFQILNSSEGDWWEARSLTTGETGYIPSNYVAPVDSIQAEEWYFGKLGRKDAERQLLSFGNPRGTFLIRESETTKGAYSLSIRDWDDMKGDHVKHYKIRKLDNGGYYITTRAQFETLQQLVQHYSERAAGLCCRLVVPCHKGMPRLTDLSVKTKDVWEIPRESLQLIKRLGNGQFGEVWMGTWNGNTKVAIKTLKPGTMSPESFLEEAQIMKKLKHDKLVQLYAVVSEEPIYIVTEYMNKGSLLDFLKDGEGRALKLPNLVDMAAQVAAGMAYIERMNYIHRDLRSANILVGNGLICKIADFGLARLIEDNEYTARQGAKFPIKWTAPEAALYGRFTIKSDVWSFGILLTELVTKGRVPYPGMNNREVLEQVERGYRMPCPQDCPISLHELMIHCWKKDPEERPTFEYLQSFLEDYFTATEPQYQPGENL

D(3) dopamine receptor, sequence (P35462 whole entry): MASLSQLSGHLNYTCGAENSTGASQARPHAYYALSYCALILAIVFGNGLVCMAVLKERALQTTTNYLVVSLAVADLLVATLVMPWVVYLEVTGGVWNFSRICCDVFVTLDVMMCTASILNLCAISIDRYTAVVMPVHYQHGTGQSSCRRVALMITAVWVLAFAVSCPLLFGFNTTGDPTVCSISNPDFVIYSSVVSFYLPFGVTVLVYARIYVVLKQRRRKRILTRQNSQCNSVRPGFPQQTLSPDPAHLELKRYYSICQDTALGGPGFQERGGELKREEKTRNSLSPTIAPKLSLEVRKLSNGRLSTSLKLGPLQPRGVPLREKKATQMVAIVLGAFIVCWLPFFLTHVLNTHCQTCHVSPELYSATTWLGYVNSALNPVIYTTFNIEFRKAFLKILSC
Tyrosine-protein kinase Lck, sequence (P06239 whole entry): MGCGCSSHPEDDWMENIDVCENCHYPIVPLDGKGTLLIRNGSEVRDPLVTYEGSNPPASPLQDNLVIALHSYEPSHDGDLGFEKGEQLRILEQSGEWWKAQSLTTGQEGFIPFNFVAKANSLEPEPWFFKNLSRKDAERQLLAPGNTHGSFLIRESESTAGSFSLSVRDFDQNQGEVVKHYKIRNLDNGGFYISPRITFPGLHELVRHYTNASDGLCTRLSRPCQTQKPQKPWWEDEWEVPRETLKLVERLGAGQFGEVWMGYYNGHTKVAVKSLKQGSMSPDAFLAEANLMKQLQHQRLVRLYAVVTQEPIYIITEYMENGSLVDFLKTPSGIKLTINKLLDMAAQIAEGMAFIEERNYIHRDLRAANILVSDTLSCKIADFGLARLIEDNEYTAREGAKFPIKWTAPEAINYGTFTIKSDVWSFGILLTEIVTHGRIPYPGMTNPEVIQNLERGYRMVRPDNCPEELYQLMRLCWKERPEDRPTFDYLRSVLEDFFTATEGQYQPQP
Beta-1 adrenergic receptor, sequence (P08588 whole entry): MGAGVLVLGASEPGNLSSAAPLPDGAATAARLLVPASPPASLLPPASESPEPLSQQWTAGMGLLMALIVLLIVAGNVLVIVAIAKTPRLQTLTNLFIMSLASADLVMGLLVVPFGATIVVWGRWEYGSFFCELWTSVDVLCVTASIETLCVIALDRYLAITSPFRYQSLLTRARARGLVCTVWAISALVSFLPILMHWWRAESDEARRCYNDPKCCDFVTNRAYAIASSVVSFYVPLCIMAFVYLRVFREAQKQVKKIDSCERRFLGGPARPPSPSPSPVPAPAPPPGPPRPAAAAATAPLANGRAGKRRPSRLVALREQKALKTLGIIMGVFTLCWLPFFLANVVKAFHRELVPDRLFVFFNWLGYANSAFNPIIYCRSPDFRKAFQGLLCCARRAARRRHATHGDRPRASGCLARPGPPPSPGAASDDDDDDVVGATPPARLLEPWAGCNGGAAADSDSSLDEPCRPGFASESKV

CC[C@H]1OC(=O)[C@H](C)[C@@H](O[C@H]2C[C@@](C)(OC)[C@@H](O)[C@H](C)O2)[C@H](C)[C@@H](O[C@@H]2O[C@H](C)C[C@H](N(C)C)[C@H]2O)[C@](C)(O)C[C@@H](C)/C(=N\OCOCCOC)[C@H](C)[C@@H](O)[C@]1(C)O [ROXITHROMYCIN]
Not Active: IC50 [1] | Ki [1] | IC50 [2] | IC50 [3] | IC50 [4] | IC50 [5] | IC50 [6] | IC50 [7] | Ki [7] | IC50 (D(3) dopamine receptor) | IC50 [8] | IC50 [9]

NC(=O)c1ccccc1O [SALICYLAMIDE]
Not Active: IC50 [1] | Ki [1] | IC50 [2] | IC50 [3] | IC50 [4] | IC50 [5] | IC50 [6] | IC50 [7] | Ki [7] | IC50 (D(3) dopamine receptor) | IC50 [8] | IC50 [9]

Cc1ncc([N+](=O)[O-])n1CC(C)O (stereo not given) [SECNIDAZOLE]
Not Active: IC50 [1] | Ki [1] | IC50 [2] | IC50 [3] | IC50 [4] | IC50 [5] | IC50 [6] | IC50 [7] | Ki [7] | IC50 (D(3) dopamine receptor) | IC50 [8] | IC50 [9]

CN[C@@H]1[C@@H](O)[C@@H](O[C@@H]2[C@@H](O)[C@H](O[C@H]3OC(CN)=CC[C@H]3N)[C@@H](N)C[C@H]2N)OC[C@]1(C)O [SISOMICIN]
Not Active: IC50 [1] | Ki [1] | IC50 [2] | IC50 [3] | IC50 [4] | IC50 [5] | IC50 [6] | IC50 [7] | Ki [7] | IC50 (D(3) dopamine receptor) | IC50 [8] | IC50 [9]

CC(=O)S[C@@H]1CC2=CC(=O)CC[C@]2(C)[C@H]2CC[C@@]3(C)[C@@H](CC[C@@]34CCC(=O)O4)[C@H]12 [SPIRONOLACTONE]
Not Active: IC50 [1] | Ki [1] | IC50 [2] | IC50 [3] | IC50 [4] | IC50 [5] | IC50 [6] | IC50 [7] | Ki [7] | IC50 (D(3) dopamine receptor) | IC50 [8] | IC50 [9]
